{"source": "patent US12534472B2", "about": "“Morphic forms of trilaciclib and methods of manufacture thereof” (Pharmacosmos Holding A/S, priority 2020, dated 2026)", "format_in_all_cases": "physicochemical", "key": {"[1]": {"test": "Gravimetric Vapor Sorption (GVS)", "details": "25° C.", "description": "Approximately 10-20 mg of sample was placed into a mesh vapor sorption balance pan and loaded into an IGASorp Moisture Sorption Analyzer balance by Hiden Analytical. The sample was subjected to a ramping profile from 40-90% relative humidity (RH) at 10% increments, maintaining the sample at each step until a stable weight had been achieved (98% step completion, minimum step length 30 minutes, maximum step length 60 minutes) at 25° C. After completion of the sorption cycle, the sample was dried using the same procedure to 0% RH, and finally taken back to the starting point of 40% RH. Three cycles were performed. The weight change during the sorption/desorption cycles were plotted, allowing for the hygroscopic nature of the sample to be determined. The above technique was used to generate the images in FIG. 40 and FIG. 41."}, "[2]": {"test": "Dynamic Vapor Sorption (DVS)", "description": "Approximately, 10-20 mg of sample was placed into a mesh vapor sorption balance pan and loaded into a DVS Intrinsic dynamic vapor sorption balance by Surface Measurement Systems. The sample was subjected to a ramping profile from 40-90% relative humidity (RH) at 10% increments, maintaining the sample at each step until a stable weight had been achieved (dm/dt 0.004%, minimum step length 30 minutes, maximum step length 500 minutes) at 25° C. After completion of the sorption cycle, the sample was dried using the same procedure to 0% RH and then a second sorption cycle back to 40% RH. Two cycles were performed. The weight change during the sorption/desorption cycles were plotted, allowing for the hygroscopic nature of the sample to be determined. XRPD analysis was then carried out on any solid retained. The above technique was used to generate the images in FIG. 5, FIG. 6, FIG. 47 and FIG. 48."}, "[3]": {"test": "Competitive slurry experiments", "description": "Competitive slurry experiments were carried out using ca. 10 mg of Pattern 1, Pattern 2/6 mixture and Pattern 3 were weighed out and added to a 1.5 mL glass vial. Samples were prepared using 100 μL aliquots of solvent until a mobile slurry was formed. Samples were stirred at ambient temperature for 48 hours. A second set of samples were stirred at 60° C. for 48 hours. All samples were collected, and the solids were isolated and analyzed by XRPD. The above technique was used to generate the images in FIG. 50, FIG. 51, and FIG. 55 through FIG. 59."}, "[4]": {"test": "Thermodynamic solubility in water at pH 4.2", "description": "Thermodynamic solubility was carried out for Pattern 1, Pattern 2/6 mixture, Pattern 3, amorphous di-HCl salts and Pattern 7 in water at pH 4.2. All samples were prepared at 30 mg/mL. Initial observations were made. The samples were agitated at ambient temperature for ca. 24 hours. The samples were collected and observations made. Observed solids were isolated via centrifugation. The mother liquor from the filtered sample was analyzed by HPLC. The pH 4.3 solution was prepared by diluting glacial acetic acid (11.6 mL) to 100 mL in deionized water, then adding sodium acetate (1.07 g) and acetic acid solution (5.9 mL) preparing up to 500 mL with deionized water; then the pH was adjusted to 4.2. The above technique was used to generate the images in FIG. 60."}}, "note": "Entries after “also recorded” stand apart in the source; their conditions may differ."}
{"molecule": "CN1CCN(c2ccc(Nc3ncc4cc5n(c4n3)C3(CCCCC3)CNC5=O)nc2)CC1", "note": "[Pattern 1, 2′-((5-(4-methylpiperazin-1-yl)pyridin-2-yl)amino)-7′,8′-dihydro-6′H-spiro[cyclohexane-1,9′-pyrazino[1′,2′:1,5]pyrrolo[2,3-d]pyrimidin]-6′-one]", "values": [{"measurement": "Change in Mass (%)-ref Desorption", "setting": "[1]; Cycle 1, desorption, target RH 0%", "result": 0.180, "unit": "%"}, {"measurement": "Change in Mass (%)-ref Desorption", "setting": "[1]; Cycle 1, desorption, target RH 10%", "result": 2.320, "unit": "%"}, {"measurement": "Change in Mass (%)-ref Desorption", "setting": "[1]; Cycle 1, desorption, target RH 20%", "result": 2.820, "unit": "%"}, {"measurement": "Change in Mass (%)-ref Desorption", "setting": "[1]; Cycle 1, desorption, target RH 30%", "result": 3.110, "unit": "%"}, {"measurement": "Change in Mass (%)-ref Desorption", "setting": "[1]; Cycle 1, desorption, target RH 40%", "result": 3.340, "unit": "%"}, {"measurement": "Change in Mass (%)-ref Desorption", "setting": "[1]; Cycle 1, desorption, target RH 50%", "result": 3.580, "unit": "%"}, {"measurement": "Change in Mass (%)-ref Desorption", "setting": "[1]; Cycle 1, desorption, target RH 60%", "result": 3.730, "unit": "%"}, {"measurement": "Change in Mass (%)-ref Desorption", "setting": "[1]; Cycle 1, desorption, target RH 70%", "result": 3.820, "unit": "%"}, {"measurement": "Change in Mass (%)-ref Desorption", "setting": "[1]; Cycle 1, desorption, target RH 80%", "result": 3.970, "unit": "%"}, {"measurement": "Change in Mass (%)-ref Desorption", "setting": "[1]; Cycle 1, desorption, target RH 90%", "result": 4.160, "unit": "%"}, {"measurement": "Change in Mass (%)-ref Sorption", "setting": "[1]; Cycle 1, sorption, target RH 40%", "result": 3.420, "unit": "%"}, {"measurement": "Change in Mass (%)-ref Sorption", "setting": "[1]; Cycle 1, sorption, target RH 50%", "result": 3.560, "unit": "%"}, {"measurement": "Change in Mass (%)-ref Sorption", "setting": "[1]; Cycle 1, sorption, target RH 60%", "result": 3.720, "unit": "%"}, {"measurement": "Change in Mass (%)-ref Sorption", "setting": "[1]; Cycle 1, sorption, target RH 70%", "result": 3.800, "unit": "%"}, {"measurement": "Change in Mass (%)-ref Sorption", "setting": "[1]; Cycle 1, sorption, target RH 80%", "result": 3.920, "unit": "%"}, {"measurement": "Change in Mass (%)-ref Sorption", "setting": "[1]; Cycle 1, sorption, target RH 90%", "result": 4.160, "unit": "%"}, {"measurement": "Change in Mass (%)-ref Desorption", "setting": "[1]; Cycle 2, desorption, target RH 0%", "result": 0.000, "unit": "%"}, {"measurement": "Change in Mass (%)-ref Desorption", "setting": "[1]; Cycle 2, desorption, target RH 10%", "result": 2.240, "unit": "%"}, {"measurement": "Change in Mass (%)-ref Desorption", "setting": "[1]; Cycle 2, desorption, target RH 20%", "result": 2.680, "unit": "%"}, {"measurement": "Change in Mass (%)-ref Desorption", "setting": "[1]; Cycle 2, desorption, target RH 30%", "result": 3.020, "unit": "%"}, {"measurement": "Change in Mass (%)-ref Desorption", "setting": "[1]; Cycle 2, desorption, target RH 40%", "result": 3.260, "unit": "%"}, {"measurement": "Change in Mass (%)-ref Desorption", "setting": "[1]; Cycle 2, desorption, target RH 50%", "result": 3.500, "unit": "%"}, {"measurement": "Change in Mass (%)-ref Desorption", "setting": "[1]; Cycle 2, desorption, target RH 60%", "result": 3.670, "unit": "%"}, {"measurement": "Change in Mass (%)-ref Desorption", "setting": "[1]; Cycle 2, desorption, target RH 70%", "result": 3.780, "unit": "%"}, {"measurement": "Change in Mass (%)-ref Desorption", "setting": "[1]; Cycle 2, desorption, target RH 80%", "result": 3.890, "unit": "%"}, {"measurement": "Change in Mass (%)-ref Desorption", "setting": "[1]; Cycle 2, desorption, target RH 90%", "result": 4.080, "unit": "%"}, {"measurement": "Change in Mass (%)-ref Sorption", "setting": "[1]; Cycle 2, sorption, target RH 0%", "result": 0.180, "unit": "%"}, {"measurement": "Change in Mass (%)-ref Sorption", "setting": "[1]; Cycle 2, sorption, target RH 10%", "result": 2.300, "unit": "%"}, {"measurement": "Change in Mass (%)-ref Sorption", "setting": "[1]; Cycle 2, sorption, target RH 20%", "result": 2.770, "unit": "%"}, {"measurement": "Change in Mass (%)-ref Sorption", "setting": "[1]; Cycle 2, sorption, target RH 30%", "result": 3.030, "unit": "%"}, {"measurement": "Change in Mass (%)-ref Sorption", "setting": "[1]; Cycle 2, sorption, target RH 40%", "result": 3.290, "unit": "%"}, {"measurement": "Change in Mass (%)-ref Sorption", "setting": "[1]; Cycle 2, sorption, target RH 50%", "result": 3.470, "unit": "%"}, {"measurement": "Change in Mass (%)-ref Sorption", "setting": "[1]; Cycle 2, sorption, target RH 60%", "result": 3.660, "unit": "%"}, {"measurement": "Change in Mass (%)-ref Sorption", "setting": "[1]; Cycle 2, sorption, target RH 70%", "result": 3.780, "unit": "%"}, {"measurement": "Change in Mass (%)-ref Sorption", "setting": "[1]; Cycle 2, sorption, target RH 80%", "result": 3.900, "unit": "%"}, {"measurement": "Change in Mass (%)-ref Sorption", "setting": "[1]; Cycle 2, sorption, target RH 90%", "result": 4.080, "unit": "%"}, {"measurement": "Change in Mass (%)-ref Sorption", "setting": "[1]; Cycle 3, sorption, target RH 0%", "result": 0.000, "unit": "%"}, {"measurement": "Change in Mass (%)-ref Sorption", "setting": "[1]; Cycle 3, sorption, target RH 10%", "result": 2.250, "unit": "%"}, {"measurement": "Change in Mass (%)-ref Sorption", "setting": "[1]; Cycle 3, sorption, target RH 20%", "result": 2.740, "unit": "%"}, {"measurement": "Change in Mass (%)-ref Sorption", "setting": "[1]; Cycle 3, sorption, target RH 30%", "result": 3.020, "unit": "%"}, {"measurement": "Change in Mass (%)-ref Sorption", "setting": "[1]; Cycle 3, sorption, target RH 40%", "result": 3.220, "unit": "%"}, {"measurement": "moisture adsorbed (DVS)", "setting": "[2]; at 40% RH", "result": 3.00, "unit": "wt %"}, {"measurement": "moisture adsorbed (DVS)", "setting": "[2]; at 90% RH", "result": 4.00, "unit": "wt %"}, {"measurement": "mass increase by DVS", "setting": "[2]; between 0% and 90% RH", "result": 4, "unit": "%"}, {"measurement": "XRPD analysis post-DVS (form stability)", "setting": "[2]; dried sample at the conclusion of the DVS experiment", "result": "confirmed Pattern 1; also recorded: no change"}, {"measurement": "stability compared to other morphic forms", "setting": "[3]", "result": "superior stability"}, {"measurement": "Observations at T = 24 hours", "setting": "[4]; 30 mg/mL in water at pH 4.2, agitated at ambient temperature ca. 24 hours", "result": "Yellow solution"}, {"measurement": "Observations at T = 0 hours", "setting": "[4]; 30 mg/mL in water at pH 4.2, ambient temperature, T = 0 hours", "result": "Yellow slurry"}]}
